Values after ≈ are worked out from the molar mass of the structure shown. Like-named read-outs stand apart in the source and are kept apart here.

In one series the test system is spoilage organisms. The series can be described thus: MIC of antimicrobial candidates (Table II). It counts as cell-based. The method, then:
“Minimal inhibitory concentration” (MIC) is another term for which no standard time period is included in the definition.
(§1) In each of the examples below, the period of incubation is 16 weeks which relates to the standard shelf life period for beverages distributed at ambient temperature. If a chemical simply retards growth for a period less than 16 weeks, then it will not fulfill the need of the manufacturer. The concentration of the chemical employed to prohibit spoilage is often reported as the Minimum Inhibitory Concentration (MIC). The MIC value of a candidate compound for use as a beverage preservative is the concentration of the candidate which permits the beverage to remain free of spoilage for a period of 16 weeks.

Series [1] relates to Saccharomyces cerevisiae, Zygosaccharomyces balii and Zygosaccharomyces bisporus. The series can be described thus: Inhibition of growth of 3 spoilage yeast in model beverage, 16 weeks incubation. It counts as cell-based. Conditions: for amount in complex required to inhibit growth of 3 different spoilage yeast: in complex with alpha or beta cyclodextrin. As to the method:
as §1
(§2) The base composition of the model beverage per liter is: […]
as §2
A model high acid beverage system (pH <4.6) of 10% juice content was prepared to test efficacy of methoxycinnamate either in the non-complex form or as the alpha (α) or beta (β) cyclodextrin-included (complex) form. The base composition of the model beverage per liter is: […]

Series [2] can be described thus: Solubility limit in model beverage system, non-complex form or cyclodextrin complex. It counts as physicochemical. Conditions: for solubility limit / limit of solubility in beverage: non-complex form; for limit of solubility in beverage: across test beverages. As to the method:
The base composition of the model beverage per liter is:
A model high acid beverage system (pH <4.6) of 10% juice content was prepared to test efficacy of methoxycinnamate either in the non-complex form or as the alpha (α) or beta (β) cyclodextrin-included (complex) form. The base composition of the model beverage per liter is:
A model low acid beverage system (pH ≧4.6) with high water activity (>0.97) was prepared to test efficacy of methoxycinnamate either in the non-complex form or as the alpha (α) or beta (β) cyclodextrin-included (complex) form. The base composition of the model beverage per liter is:
A model high acid beverage system (pH <4.6) of 10% juice content was prepared to test efficacy of trans, trans 2,4 decadienal either in the non-complex form or as the alpha (α) or beta (β) cyclodextrin-included (complex) form. The base composition of the model beverage per liter is:
A model low acid beverage system (pH ≧4.6) with high water activity (>0.97) was prepared to test efficacy of trans, trans 2,4 decadienal either in the non-complex form or as the alpha (α) or beta (β) cyclodextrin-included (complex) form. The base composition of the model beverage per liter is: […]

Setting [3] is: high acid model beverage pH 3.4, 10% grape juice (Example 3).
Setting [4] is: low acid model tea beverage pH 5.3 (Examples 4 and 6).
The mark [5] stands for this setting: at limit of solubility, summary of examples.
[6] abbreviates: at solubility limit concentration, low acid model tea beverage pH 5.3 (Examples 4 and 6).
[7] abbreviates: in complex with α-cyclodextrin, low acid model tea beverage pH 5.3 (Examples 4 and 6).
Where [8] appears, read: in complex with β-cyclodextrin, low acid model tea beverage pH 5.3 (Examples 4 and 6).
The mark [9] stands for this setting: high acid model beverage pH 3.4, 5% grape and 5% apple juice (Example 5).

Consider `CCCCCCCC1CCC(=O)O1` (stereo not drawn) [Undecalactone], for which, in the series on spoilage organisms, the MIC was determined as 28 ppm.
Turning to `CCCCCC1CCC(=O)O1` (stereo not drawn) [Nonanoic lactone], the MIC in the series on spoilage organisms came out at 63 ppm.
As for `CCCOC(=O)c1ccccc1` [Propyl benzoate], the MIC in the series with spoilage organisms (2688 h, read-out: MIC) worked out at 66 µg/mL.
For the compound `Cc1ccc(C(C)C)c(O)c1` [thymol], the MIC in the series with spoilage organisms (2688 h, read-out: MIC) came out at 250 µg/mL.
For `C=C(C)C1CC=C(C=O)CC1` (stereo not drawn) [perillaldehyde], the MIC in the series on spoilage organisms (2688 h, read-out: MIC) was 500 µg/mL.
The same measure, in the same setting: in the case of `O=C(O)CCCC1CCCCC1` [Cyclohexanebutyric acid] it was 68 µg/mL.
`O=C(OCc1ccccc1)c1ccc(O)cc1` [Benzyl-4-hydroxbenzoate]: the MIC with spoilage organisms turned out to be 68 ppm.
Turning to `CCCCCCCCCC=O` [Decanal], in the series on spoilage organisms (2688 h, read-out: MIC), the MIC was determined as 47 µg/mL.
On the same count and under the same terms, next, `CCCCCCCCCCO` [1-Decanol]: 24 µg/mL.
Same read-out and setting: in the case of `CCCCCCCCCCC=O` [Undecanal] it was 34 µg/mL; in that of `O=C(O)C=Cc1ccccc1` [Cinnamic acid], 300 µg/mL.
With `CCCOC(=O)c1ccc(O)cc1` [propyl paraben, Propyl paraban], the “amount in complex required to inhibit growth of 3 different spoilage yeast” value in series [1] (summary of examples) was 510-600 ppm. Further, the “amount required to inhibit growth of 3 different spoilage yeast” value in series [1] (in complex with α-cyclodextrin, high acid model beverage pH 3.4, 10% apple juice (Example 1)) came out at 510 mg/L; in series [1] (in complex with α-cyclodextrin, low acid model beverage pH 5.8 (Example 2)), 510 mg/L; in series [1] (in complex with β-cyclodextrin, high acid model beverage pH 3.4, 10% apple juice (Example 1)) it was 600 mg/L; in series [1] (in complex with β-cyclodextrin, low acid model beverage pH 5.8 (Example 2)), 650 mg/L.
Turning to `CC(=O)OCCC1CCCCC1` [2-Cyclohexylethyl acetate], the MIC in the series on spoilage organisms (2688 h, read-out: MIC) was 102 µg/mL.
Regarding `COc1ccccc1C=CC=O` [o-methoxycinnamylaldehyde], the MIC in the series with spoilage organisms is listed as 58 ppm.
The same measure, in the same setting: in the case of `C/C(C=O)=C\c1ccccc1` [methyl trans cinnamylaldehyde] it was 58.4 ppm; in that of `CCCCCCCCC(=O)OC` [Methyl nonaoate], 90 ppm.
Take `C/C=C/C=C/C(=O)O` [Sorbic acid]: the MIC with spoilage organisms (2688 h, read-out: MIC) is 1200 µg/mL.
methoxycinnamate: the “solubility in the form of a complex with alpha or beta cyclodextrin” value in series [2] (setting [3]) is not above 3690 µg/mL; in series [2] (setting [4]), not above 3411 µg/mL; in series [2] (summary of examples), not above 3600 µg/mL. The solubility limit is 498 µg/mL in series [2] (setting [3]) and 600 µg/mL in series [2] (setting [4]). In addition, the “limit of solubility in beverage” value in series [2] (summary of examples) was in the range of 498 to 600 µg/mL. Also, the “effective as a stand alone chemical preservative” value is given as “not effective” in series [1] (setting [5]); “not effective” in series [1] (at solubility limit concentration, high acid model beverage pH 3.4, 10% grape juice (Example 3)); “did not prove effective” in series [1] (setting [6]). Also, in series [1] (summary of examples), the “amount in complex required to inhibit growth of 3 different spoilage yeast” value is 400-807 ppm. For the same compound, the “amount required to inhibit growth of 3 different spoilage yeast” value in series [1] (in complex with α-cyclodextrin, high acid model beverage pH 3.4, 10% grape juice (Example 3)) amounted to 800 mg/L; in series [1] (setting [7]), 800 mg/L; in series [1] (in complex with β-cyclodextrin, high acid model beverage pH 3.4, 10% grape juice (Example 3)), 420 mg/L; in series [1] (setting [8]), 420 mg/L. In addition, the MIC is 400 µg/mL in series [1] (in complex with β-cyclodextrin, summary of examples) and more than 600 µg/mL in series [1] (non-complex form, summary of examples).
As for `CCCCC/C=C/C=C/C=O` [Trans, trans, 2,4 decadienal], the MIC in the series with spoilage organisms is 8 ppm. Further, the “solubility in the form of a complex with alpha or beta cyclodextrin” value in series [2] (setting [9]), in series [2] (setting [4]) and in series [2] (summary of examples) was not above 280 µg/mL in each case. Moreover, the figures for the solubility limit in series [2] (setting [9]) and in series [2] (setting [4]) were 5.4 µg/mL (≈ 35.5 µM) and 5.8 µg/mL (≈ 38.1 µM), respectively. For the same compound, in series [2] (summary of examples), the “limit of solubility in beverage” value was 57 µg/mL. Moreover, the “effective as a stand alone chemical preservative” value in series [1] (setting [5]) was “not effective”; in series [1] (at solubility limit concentration, high acid model beverage pH 3.4, 5% grape and 5% apple juice (Example 5)) it was “not effective”; in series [1] (setting [6]), “did not prove effective”. Further, the “amount in complex required to inhibit growth of 3 different spoilage yeast” value in series [1] (summary of examples) is given as 57-124 ppm. The “amount required to inhibit growth of 3 different spoilage yeast” value came out at 60 mg/L in series [1] (in complex with α-cyclodextrin, high acid model beverage pH 3.4, 5% grape and 5% apple juice (Example 5)); 57 mg/L in series [1] (setting [7]); 125 mg/L in series [1] (in complex with β-cyclodextrin, high acid model beverage pH 3.4, 5% grape and 5% apple juice (Example 5)); 123 mg/L in series [1] (setting [8]).
As for `O=CC=Cc1ccccc1` [Cinnamaldehyde], the MIC in the series with spoilage organisms (2688 h, read-out: MIC) came to 66 µg/mL.
For the compound `CCCCCCCCC(=O)O` [Nonanoic acid], in the series on spoilage organisms (2688 h, read-out: MIC), the MIC amounted to 63 µg/mL.

(Values after US20100040738A1, “Extension Of Beverage Shelf-Stability By Solute-Ligand Complexes” (PepsiCo., Inc., priority 2008, published 2010).)
